Laboratory results from patent publication US12441725B2, “ISO-citrate dehydrogenase (IDH) inhibitor” (ZHEJIANG METON PHARMACEUTICAL CO., LTD, priority 2019, dated 2025).

What was measured:
[1] = target: T1, IDH (endogenous IDH1 R132C) in HT1080 cell (Homo sapiens, UniProt O75874, R132C); assay: Cell-based assay for IDH inhibition (decrease of D-2-HG) in HT1080 cells; details: human fibrosarcoma cell line HT1080, 16 hours treatment, D-2-HG by LC-MS, in triplet
T1 construct: which harbor endogenous heterozygous IDH1 R132C and R132H mutation respectively and accumulate D-2-HG
In short: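 HT1080 cells with endogenous IDH1 R132C, grown in DMEM/10% FBS, treated with compound at several concentrations for 16 h. Metabolites extracted in cold 40% methanol/40% acetonitrile and D-2-HG measured by HILIC LC-MS/MS, normalized to glutamate. IC50 from D-2-HG relative to DMSO controls; run in triplicate.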

IDH1 R132H = target: T2, IDH1 R132H (Homo sapiens, UniProt O75874, R132H); assay: Biochemical assay for IDH inhibition (NADPH fluorescence), mutant IDH1 R132H; details: 50 nM IDH1-R132H, 1 hour pre-incubation, in triplet
T2 construct: 6xHis
In short: (§1)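 Mutant enzyme (25 nM R132C or 50 nM R132H) was preincubated 1 h at room temperature with compound in pH 7.5 Tris buffer containing 1.33 mM α-KG, and the reaction was then started with NADPH (80 μM solution). NADPH consumption was followed by fluorescence (Ex 340/Em 460 nm) for 15 min. IC50 was derived from background-corrected linear rates relative to vehicle, run in triplicate.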

IDH1 R132C = target: T3, IDH1 R132C (Homo sapiens, UniProt O75874, R132C); assay: Biochemical assay for IDH inhibition (NADPH fluorescence), mutant IDH1 R132C; details: 25 nM IDH1-R132C, 1 hour pre-incubation, in triplet
T3 construct: 6xHis
In short: as §1

T3 sequence (O75874 whole entry R132C): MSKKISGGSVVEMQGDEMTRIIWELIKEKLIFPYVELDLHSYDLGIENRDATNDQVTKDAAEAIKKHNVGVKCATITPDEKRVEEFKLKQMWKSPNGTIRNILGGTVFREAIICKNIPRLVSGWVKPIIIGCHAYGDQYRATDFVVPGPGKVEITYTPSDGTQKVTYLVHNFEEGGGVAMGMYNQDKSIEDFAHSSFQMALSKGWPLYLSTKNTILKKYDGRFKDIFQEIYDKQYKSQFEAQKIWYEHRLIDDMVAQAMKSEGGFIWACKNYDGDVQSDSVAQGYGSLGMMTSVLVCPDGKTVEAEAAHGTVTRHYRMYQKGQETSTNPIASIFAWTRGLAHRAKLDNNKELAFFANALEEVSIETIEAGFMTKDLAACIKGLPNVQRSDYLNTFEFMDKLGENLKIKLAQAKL
T1 sequence (O75874 2-414 R132C): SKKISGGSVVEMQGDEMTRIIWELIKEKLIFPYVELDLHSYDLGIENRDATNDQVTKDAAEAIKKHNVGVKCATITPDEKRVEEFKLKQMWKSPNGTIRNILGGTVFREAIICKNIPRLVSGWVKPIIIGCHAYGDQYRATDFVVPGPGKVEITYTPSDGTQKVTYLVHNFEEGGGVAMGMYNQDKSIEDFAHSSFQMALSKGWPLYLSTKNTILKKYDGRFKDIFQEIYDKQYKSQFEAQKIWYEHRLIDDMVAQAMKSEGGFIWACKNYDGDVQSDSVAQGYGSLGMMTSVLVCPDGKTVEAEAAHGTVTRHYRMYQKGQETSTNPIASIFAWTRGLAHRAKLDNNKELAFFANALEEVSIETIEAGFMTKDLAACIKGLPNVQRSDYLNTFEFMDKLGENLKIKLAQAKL
T2 sequence (O75874 whole entry R132H): as the sequence (O75874 whole entry R132C) above, with C132H counted along it

Compound	IC50 [1]	IC50 (IDH1 R132H)	IC50 (IDH1 R132C)
CCN1Cc2c(ccnc2N[C@@H](C)c2cc(F)c(-c3cc(OC(C)(C)C)ncc3C)cc2F)C1=O [Compound 151, (S)-4-((1-(4-(2-(tert-butoxy)-5-methylpyridin-4-yl)-2,5-difluorophenyl)ethyl)amino)-2-ethyl-2,3-dihydro-1H-pyrrolo[3,4-c]pyridin-1-one]	< 100 nM	< 100 nM	100 to 500 nM
CCN1Cc2c(ccnc2N[C@@H](C)c2cc(F)c(-c3cc(OC(C)(C)C)c(Cl)cn3)cc2F)C1=O [Compound 152, (S)-4-((1-(4-(4-(tert-butoxy)-5-chloropyridin-2-yl)-2,5-difluorophenyl)ethyl)amino)-2-ethyl-2,3-dihydro-1H-pyrrolo[3,4-c]pyridin-1-one]	< 100 nM	< 100 nM	< 100 nM
CCN1Cc2c(ccnc2N[C@@H](C)c2cc(F)c(-c3cc(C(C)(C)F)c(OC)nn3)cc2F)C1=O [Compound 153, (S)-4-((1-(2,5-difluoro-4-(5-(2-fluoropropan-2-yl)-6-methoxypyridazin-3-yl)phenyl)ethyl)amino)-2-ethyl-2,3-dihydro-1H-pyrrolo[3,4-c]pyridin-1-one]	< 100 nM	< 100 nM	< 100 nM
CCN1Cc2c(ccnc2N[C@@H](C)c2cc(F)c(-c3cc(C(F)(F)F)cc(F)n3)cc2F)C1=O [Compound 155, (S)-4-((1-(2,5-difluoro-4-(6-fluoro-4-(trifluoromethyl)pyridin-2-yl)phenyl)ethyl)amino)-2-ethyl-2,3-dihydro-1H-pyrrolo[3,4-c]pyridin-1-one]	100 to 500 nM	< 100 nM	100 to 500 nM
CCN1Cc2c(ccnc2N[C@@H](C)c2cc(F)c(-c3cc(C(F)(F)F)cc(O)n3)cc2F)C1=O [Compound 157, (S)-4-((1-(2,5-difluoro-4-(6-hydroxy-4-(trifluoromethyl)pyridin-2-yl)phenyl)ethyl)amino)-2-ethyl-2,3-dihydro-1H-pyrrolo[3,4-c]pyridin-1-one]	> 1000 nM	100 to 500 nM	> 1000 nM
CCN1Cc2c(ccnc2N[C@@H](C)c2cc(F)c(-c3cc(C(C)(C)F)c(OCOC)cn3)cc2F)C1=O [Compound 161, (S)-4-((1-(2,5-difluoro-4-(4-(2-fluoropropan-2-yl)-5-(methoxymethoxy)pyridin-2-yl)phenyl)ethyl)amino)-2-ethyl-2,3-dihydro-1H-pyrrolo[3,4-c]pyridin-1-one]	< 100 nM	< 100 nM	< 100 nM
CCN1Cc2c(ccnc2N[C@@H](C)c2cc(F)c(-c3cc(C(F)(F)F)c(O)cn3)cc2F)C1=O [Compound 164, (S)-4-((1-(2,5-difluoro-4-(5-hydroxy-4-(trifluoromethyl)pyridin-2-yl)phenyl)ethyl)amino)-2-ethyl-2,3-dihydro-1H-pyrrolo[3,4-c]pyridin-1-one]	500 to 1000 nM	100 to 500 nM	500 to 1000 nM
CCN1Cc2c(ccnc2N[C@@H](C)c2cc(F)c(-c3cc(C(F)(F)F)c(OC)cn3)cc2F)C1=O [Compound 165, (S)-4-((1-(2,5-difluoro-4-(5-methoxy-4-(trifluoromethyl)pyridin-2-yl)phenyl)ethyl)amino)-2-ethyl-2,3-dihydro-1H-pyrrolo[3,4-c]pyridin-1-one]	< 100 nM	< 100 nM	< 100 nM

Second part, the compound after the results:

IC50 [1]	IC50 (IDH1 R132H)	IC50 (IDH1 R132C)	Compound
100 to 500 nM	< 100 nM	100 to 500 nM	CCN1Cc2c(ccnc2N[C@@H](C)c2cc(F)c(-c3ccc(OC)c(C(C)(C)C)n3)cc2F)C1=O [Compound 149, (S)-4-((1-(4-(6-(tert-butyl)-5-methoxypyridin-2-yl)-2,5-difluorophenyl)ethyl)amino)-2-ethyl-2,3-dihydro-1H-pyrrolo[3,4-c]pyridin-1-one]
< 100 nM	< 100 nM	< 100 nM	CCN1Cc2c(ccnc2N[C@@H](C)c2cc(F)c(-c3cc(C(C)(C)C)c(OC)cn3)cc2F)C1=O [Compound 150, (S)-4-((1-(4-(4-(tert-butyl)-5-methoxypyridin-2-yl)-2,5-difluorophenyl)ethyl)amino)-2-ethyl-2,3-dihydro-1H-pyrrolo[3,4-c]pyridin-1-one]
100 to 500 nM	100 to 500 nM	500 to 1000 nM	CCN1Cc2c(ccnc2N[C@@H](C)c2cc(F)c(-c3ccnc(C(C)(C)C#N)c3)cc2F)C1=O [Compound 154, (S)-2-(4-(4-(1-((2-ethyl-1-oxo-2,3-dihydro-1H-pyrrolo[3,4-c]pyridin-4-yl)amino)ethyl)-2,5-difluorophenyl)pyridin-2-yl)-2-methylpropanenitrile]
100 to 500 nM	100 to 500 nM	500 to 1000 nM	CCN1Cc2c(ccnc2N[C@@H](C)c2cc(F)c(-c3cc(C(C)(C)F)cc(O)n3)cc2F)C1=O [Compound 156, (S)-4-((1-(2,5-difluoro-4-(4-(2-fluoropropan-2-yl)-6-hydroxypyridin-2-yl)phenyl)ethyl)amino)-2-ethyl-2,3-dihydro-1H-pyrrolo[3,4-c]pyridin-1-one]
> 1000 nM	100 to 500 nM	> 1000 nM	COCCN1Cc2c(ccnc2N[C@@H](C)c2cc(F)c(-c3ccnc(C(C)(C)C)c3)cc2F)C1=O [Compound 158, (S)-4-((1-(4-(2-(tert-butyl)pyridin-4-yl)-2,5-difluorophenyl)ethyl)amino)-2-(2-methoxyethyl)-2,3-dihydro-1H-pyrrolo[3,4-c]pyridin-1-one]
100 to 500 nM	100 to 500 nM	100 to 500 nM	C[C@H](Nc1nccc2c1CN(CCO)C2=O)c1cc(F)c(-c2ccnc(C(C)(C)C)c2)cc1F [Compound 159, (S)-4-((1-(4-(2-(tert-butyl)pyridin-4-yl)-2,5-difluorophenyl)ethyl)amino)-2-(2-hydroxyethyl)-2,3-dihydro-1H-pyrrolo[3,4-c]pyridin-1-one]
100 to 500 nM	100 to 500 nM	100 to 500 nM	CCN1Cc2c(ccnc2N[C@@H](C)c2cc(F)c(-c3cn(C(C)(C)C)cn3)cc2F)C1=O [Compound 160, (S)-4-((1-(4-(1-(tert-butyl)-1H-imidazol-4-yl)-2,5-difluorophenyl)ethyl)amino)-2-ethyl-2,3-dihydro-1H-pyrrolo[3,4-c]pyridin-1-one]
100 to 500 nM	100 to 500 nM	100 to 500 nM	CCN1Cc2c(ccnc2N[C@@H](C)c2cc(F)c(-c3cc(C(C)(C)F)c(O)cn3)cc2F)C1=O [Compound 162, (S)-4-((1-(2,5-difluoro-4-(4-(2-fluoropropan-2-yl)-5-hydroxypyridin-2-yl)phenyl)ethyl)amino)-2-ethyl-2,3-dihydro-1H-pyrrolo[3,4-c]pyridin-1-one]
< 100 nM	< 100 nM	100 to 500 nM	CCN1Cc2c(ccnc2N[C@@H](C)c2cc(F)c(-c3cc(C(C)(C)F)c(C#N)cn3)cc2F)C1=O [Compound 163, (S)-6-(4-(1-((2-ethyl-1-oxo-2,3-dihydro-1H-pyrrolo[3,4-c]pyridin-4-yl)amino)ethyl)-2,5-difluorophenyl)-4-(2-fluoropropan-2-yl)nicotinonitrile]
